Test results as given in publication doi:10.1101/2020.06.23.167346v1 (biorxiv, 2020).

Target: T1, TcAK (T. cruzi arginine kinase) (Trypanosoma cruzi, UniProt O96507)
T1 sequence (O96507 1-357): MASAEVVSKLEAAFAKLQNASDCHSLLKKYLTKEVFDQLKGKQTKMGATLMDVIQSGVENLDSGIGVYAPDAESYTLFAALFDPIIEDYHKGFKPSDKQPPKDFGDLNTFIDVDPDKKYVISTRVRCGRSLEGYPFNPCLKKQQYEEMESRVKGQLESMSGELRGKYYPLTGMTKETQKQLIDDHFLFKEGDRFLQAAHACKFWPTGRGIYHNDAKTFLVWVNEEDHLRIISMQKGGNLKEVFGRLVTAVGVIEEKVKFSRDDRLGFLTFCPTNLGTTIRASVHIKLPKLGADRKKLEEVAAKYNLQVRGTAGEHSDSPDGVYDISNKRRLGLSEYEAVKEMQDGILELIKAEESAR
Assay: coupled pyruvate kinase / lactate dehydrogenase assay, NADH absorbance at […] nm
Assay type: biochemical

**Q.** For COc1cc(CNC(=O)CCCC/C=C/C(C)C)ccc1O [capsaicin, (E)-N-(4-hydroxy-3-methoxybenzyl)-8-methyl-6-nonenamide], which IC50 is on record?
**A.** The IC50 was ~800 µM.
